# Test results published in ChEMBL document CHEMBL1201861, “Genomics of Drug Sensitity in Cancer screening data, Wellcome Trust Sanger Institute”.
# Assays:
# Assay in all cases: cells
# COR-L23 = assay type: functional, cell-based; settings: Homo sapiens;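 further: cell viability assay measuring how strongly compounds suppress growth of COR-L23 cells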
# Description: SANGER: Inhibition of human COR-L23 cell growth in a cell viability assay.
# Ca9-22 = assay type: functional, cell-based; settings: Homo sapiens;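 further: growth inhibition of Ca9-22 cells, read out with a cell viability assay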
# Description: SANGER: Inhibition of human Ca9-22 cell growth in a cell viability assay.
# Calu-3 = assay type: functional, cell-based; settings: Homo sapiens;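 further: growth inhibition of human Calu-3 cells, determined with a cell viability assay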
# Description: SANGER: Inhibition of human Calu-3 cell growth in a cell viability assay.
# D-336MG = assay type: functional, cell-based, Homo sapiens; settings: Homo sapiens, D-336MG
# Description: SANGER: Inhibition of human D-336MG cell growth in a cell viability assay.
# DBTRG-05MG = assay type: functional, cell-based; settings: Homo sapiens;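 further: cell viability assay measuring growth inhibition of human DBTRG-05MG cells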
# Description: SANGER: Inhibition of human DBTRG-05MG cell growth in a cell viability assay.
# Daoy = assay type: functional, cell-based; settings: Homo sapiens;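 further: daoy cell growth inhibition, read out as cell viability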
# Description: SANGER: Inhibition of human Daoy cell growth in a cell viability assay.
# Detroit 562 = assay type: functional, cell-based; settings: Homo sapiens;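 further: growth inhibition of human Detroit 562 cells, read out by a cell viability assay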
# Description: SANGER: Inhibition of human Detroit562 cell growth in a cell viability assay.
# EFM-19 = assay type: functional, cell-based; settings: Homo sapiens;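 further: growth inhibition of human EFM-19 cells, measured in a cell viability assay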
# Description: SANGER: Inhibition of human EFM-19 cell growth in a cell viability assay.
# EW-22 = assay type: functional, cell-based; settings: Homo sapiens;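 further: growth inhibition of the EW-22 cell line, measured with a cell viability readout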
# Description: SANGER: Inhibition of human EW-22 cell growth in a cell viability assay.
# HGC-27 = assay type: functional, cell-based; settings: Homo sapiens;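 further: growth inhibition of human HGC-27 cells, read out in a cell viability assay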
# Description: SANGER: Inhibition of human HGC-27 cell growth in a cell viability assay.
# HMV-2 cell line = assay type: functional, cell-based; settings: Homo sapiens;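 further: growth inhibition of HMV-II cells, read out with a cell viability assay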
# Description: SANGER: Inhibition of human HMV-II cell growth in a cell viability assay.
# HN = assay type: functional, cell-based; settings: Homo sapiens
# Description: SANGER: Inhibition of human HN cell growth in a cell viability assay.
# HSC-3 = assay type: functional, cell-based; settings: Homo sapiens
# Description: SANGER: Inhibition of human HSC-3 cell growth in a cell viability assay.
# HT-1080 = assay type: functional, cell-based; settings: Homo sapiens
# Description: SANGER: Inhibition of human HT-1080 cell growth in a cell viability assay.
# HT-3 = assay type: functional, cell-based; settings: Homo sapiens;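 further: growth inhibition measured with a cell viability readout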
# Description: SANGER: Inhibition of human HT-3 cell growth in a cell viability assay.
# HTC-C3 = assay type: functional, cell-based; settings: Homo sapiens;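 further: inhibition of cell growth, read out with a cell viability assay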
# Description: SANGER: Inhibition of human HTC-C3 cell growth in a cell viability assay.
# KYSE-180 = assay type: functional, cell-based; settings: Homo sapiens;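 further: growth inhibition of KYSE-180 cells, read out with a cell viability assay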
# Description: SANGER: Inhibition of human KYSE-180 cell growth in a cell viability assay.
# MG-63 = assay type: functional, cell-based; settings: Homo sapiens;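 further: growth inhibition of human MG-63 cells, read out with a cell viability assay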
# Description: SANGER: Inhibition of human MG-63 cell growth in a cell viability assay.
# MKN-45 = assay type: functional, cell-based; settings: Homo sapiens;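 further: growth inhibition of human MKN-45 cells, measured with a cell viability assay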
# Description: SANGER: Inhibition of human MKN45 cell growth in a cell viability assay.
# MeWo = assay type: functional, cell-based; settings: Homo sapiens;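 further: growth inhibition of MeWo cells, determined by a cell viability readout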
# Description: SANGER: Inhibition of human Mewo cell growth in a cell viability assay.
# NB14 = assay type: functional, cell-based, Homo sapiens; settings: Homo sapiens, NB14;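 further: growth inhibition of NB14 cells measured with a cell viability assay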
# Description: SANGER: Inhibition of human NB14 cell growth in a cell viability assay.
# NCI-H1437 = assay type: functional, cell-based; settings: Homo sapiens;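 further: growth inhibition of human NCI-H1437 cells, read out by a cell viability assay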
# Description: SANGER: Inhibition of human NCI-H1437 cell growth in a cell viability assay.
# NCI-H1755 = assay type: functional, cell-based; settings: Homo sapiens;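 further: cell viability readout used to measure growth inhibition of NCI-H1755 cells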
# Description: SANGER: Inhibition of human NCI-H1755 cell growth in a cell viability assay.
# NCI-H1793 = assay type: functional, cell-based; settings: Homo sapiens;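 further: cell growth inhibition, read out by a cell viability assay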
# Description: SANGER: Inhibition of human NCI-H1793 cell growth in a cell viability assay.
# NCI-H2030 = assay type: functional, cell-based; settings: Homo sapiens;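 further: growth inhibition of human NCI-H2030 cells, read out by a cell viability assay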
# Description: SANGER: Inhibition of human NCI-H2030 cell growth in a cell viability assay.
# NCI-H2228 = assay type: functional, cell-based; settings: Homo sapiens;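 further: growth inhibition of human NCI-H2228 cells, read out by a cell viability assay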
# Description: SANGER: Inhibition of human NCI-H2228 cell growth in a cell viability assay.
# NCI-H2347 = assay type: functional, cell-based; settings: Homo sapiens;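 further: growth inhibition of the cell line, read out with a cell viability assay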
# Description: SANGER: Inhibition of human NCI-H2347 cell growth in a cell viability assay.
# PFSK-1 = assay type: functional, cell-based; settings: Homo sapiens;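 further: cell viability assay measuring how strongly compounds suppress growth of human PFSK-1 cells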
# Description: SANGER: Inhibition of human PFSK-1 cell growth in a cell viability assay.
# RD = assay type: functional, cell-based; settings: Homo sapiens
# Description: SANGER: Inhibition of human RD cell growth in a cell viability assay.
# RERF-LC-MS = assay type: functional, cell-based; settings: Homo sapiens;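 further: growth inhibition of human RERF-LC-MS cells, read out by a cell viability assay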
# Description: SANGER: Inhibition of human RERF-LC-MS cell growth in a cell viability assay.
# RO82-W-1 = assay type: functional, cell-based; settings: Homo sapiens;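 further: growth inhibition of human RO82-W-1 cells, measured with a cell viability assay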
# Description: SANGER: Inhibition of human RO82-W-1 cell growth in a cell viability assay.
# RPMI-2650 = assay type: functional, cell-based; settings: Homo sapiens
# Description: SANGER: Inhibition of human RPMI-2650 cell growth in a cell viability assay.
# S-117 = assay type: functional, cell-based; settings: Homo sapiens
# Description: SANGER: Inhibition of human S-117 cell growth in a cell viability assay.
# SK-LU-1 = assay type: functional, cell-based; settings: Homo sapiens;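 further: cell viability assay measuring growth inhibition of human SK-LU-1 cells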
# Description: SANGER: Inhibition of human SK-LU-1 cell growth in a cell viability assay.
# SK-MEL-24 = assay type: functional, cell-based; settings: Homo sapiens;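 further: growth inhibition read out by a cell viability assay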
# Description: SANGER: Inhibition of human SK-MEL-24 cell growth in a cell viability assay.
# SNU-387 = assay type: functional, cell-based; settings: Homo sapiens
# Description: SANGER: Inhibition of human SNU-387 cell growth in a cell viability assay.
# SW13 = assay type: functional, cell-based; settings: Homo sapiens;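 further: IC50 is inhibition of SW13 cell growth, read out with a cell viability assay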
# Description: SANGER: Inhibition of human SW13 cell growth in a cell viability assay.
# SW1417 = assay type: functional, cell-based; settings: Homo sapiens;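 further: growth inhibition of human SW1417 cells, read out with a cell viability assay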
# Description: SANGER: Inhibition of human SW1417 cell growth in a cell viability assay.
# T98G = assay type: functional, cell-based; settings: Homo sapiens;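 further: growth inhibition of T98G cells, read out by a cell viability assay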
# Description: SANGER: Inhibition of human T98G cell growth in a cell viability assay.
# A673 = assay type: functional, cell-based; settings: Homo sapiens;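 further: growth inhibition of human A673 cells, read out through a cell viability assay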
# Description: SANGER: Inhibition of human A673 cell growth in a cell viability assay.
# AGS = assay type: functional, cell-based; settings: Homo sapiens;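 further: growth inhibition of AGS cells, determined with a cell viability assay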
# Description: SANGER: Inhibition of human AGS cell growth in a cell viability assay.
# ASPC1 = assay type: functional, cell-based; settings: Homo sapiens;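 further: growth inhibition of AsPC-1 cells, read out with a cell viability assay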
# Description: SANGER: Inhibition of human AsPC-1 cell growth in a cell viability assay.
# BFTC-905 = assay type: functional, cell-based; settings: Homo sapiens
# Description: SANGER: Inhibition of human BFTC-905 cell growth in a cell viability assay.
# BFTC-909 = assay type: functional, cell-based; settings: Homo sapiens
# Description: SANGER: Inhibition of human BFTC-909 cell growth in a cell viability assay.
# CAL-120 = assay type: functional, cell-based; settings: Homo sapiens;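 further: cell growth inhibition, read out as cell viability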
# Description: SANGER: Inhibition of human CAL-120 cell growth in a cell viability assay.
# CAL-85-1 = assay type: functional, cell-based; settings: Homo sapiens;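 further: growth inhibition of human CAL-85-1 cells, read out with a cell viability assay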
# Description: SANGER: Inhibition of human CAL-85-1 cell growth in a cell viability assay.
# CAPAN-1 = assay type: functional, cell-based; settings: Homo sapiens;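 further: growth suppression of CAPAN-1 cells, read out by a cell viability assay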
# Description: SANGER: Inhibition of human CAPAN-1 cell growth in a cell viability assay.
# SW626 = assay type: functional, cell-based; settings: Homo sapiens;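 further: growth inhibition of SW626 cells, measured with a cell viability assay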
# Description: SANGER: Inhibition of human SW626 cell growth in a cell viability assay.
compound,measurement,setting,value
O=C1NC(=O)c2c1c(-c1ccccc1Cl)cc1[nH]c3ccc(O)cc3c21,IC50,COR-L23,752 nM
same,IC50,Ca9-22,> 2000 nM
same,IC50,Calu-3,> 2 µM
same,IC50,D-336MG,> 2 µM
same,IC50,DBTRG-05MG,> 2000 nM
same,IC50,Daoy,> 2 µM
same,IC50,Detroit 562,> 2 µM
same,IC50,EFM-19,> 2000 nM
same,IC50,EW-22,> 2 µM
same,IC50,HGC-27,> 2000 nM
same,IC50,HMV-2 cell line,> 2000 nM
same,IC50,HN,1300 nM
same,IC50,HSC-3,1180 nM
same,IC50,HT-1080,1200 nM
same,IC50,HT-3,> 2 µM
same,IC50,HTC-C3,995 nM
same,IC50,KYSE-180,> 2 µM
same,IC50,MG-63,> 2000 nM
same,IC50,MKN-45,852 nM
same,IC50,MeWo,> 2 µM
same,IC50,NB14,> 2000 nM
same,IC50,NCI-H1437,> 2000 nM
same,IC50,NCI-H1755,> 2000 nM
same,IC50,NCI-H1793,> 2 µM
same,IC50,NCI-H2030,1290 nM
same,IC50,NCI-H2228,> 2 µM
same,IC50,NCI-H2347,> 2 µM
same,IC50,PFSK-1,> 2 µM
same,IC50,RD,> 2 µM
same,IC50,RERF-LC-MS,> 2 µM
same,IC50,RO82-W-1,> 2 µM
same,IC50,RPMI-2650,> 2 µM
same,IC50,S-117,> 2 µM
same,IC50,SK-LU-1,1000 nM
same,IC50,SK-MEL-24,> 2 µM
same,IC50,SNU-387,> 2000 nM
same,IC50,SW13,> 2 µM
same,IC50,SW1417,> 2 µM
same,IC50,T98G,> 2000 nM
same,IC50,A673,> 2 µM
same,IC50,AGS,> 2000 nM
same,IC50,ASPC1,> 2 µM
same,IC50,BFTC-905,1620 nM
same,IC50,BFTC-909,> 2 µM
same,IC50,CAL-120,> 2000 nM
same,IC50,CAL-85-1,> 2000 nM
same,IC50,CAPAN-1,> 2 µM
O=C(NCCCNc1nc(Nc2cccc(NC(=O)N3CCCC3)c2)ncc1I)c1cccs1 [BX-795],IC50,COR-L23,4020 nM
same,IC50,Ca9-22,2130 nM
same,IC50,Calu-3,> 5 µM
same,IC50,D-336MG,4.3 µM
same,IC50,DBTRG-05MG,> 5000 nM
same,IC50,Daoy,> 5 µM
same,IC50,Detroit 562,3.89 µM
same,IC50,EFM-19,> 5000 nM
same,IC50,EW-22,3.91 µM
same,IC50,HGC-27,> 5000 nM
same,IC50,HMV-2 cell line,> 5000 nM
same,IC50,HN,2120 nM
same,IC50,HSC-3,1440 nM
same,IC50,HT-1080,> 5000 nM
same,IC50,HT-3,> 5 µM
same,IC50,HTC-C3,> 5000 nM
same,IC50,KYSE-180,> 5 µM
same,IC50,MG-63,1690 nM
same,IC50,MKN-45,> 5000 nM
same,IC50,MeWo,> 5 µM
same,IC50,NB14,1060 nM
same,IC50,NCI-H1437,2770 nM
same,IC50,NCI-H1755,2540 nM
same,IC50,NCI-H1793,> 5 µM
same,IC50,NCI-H2030,> 5000 nM
same,IC50,NCI-H2228,> 5 µM
same,IC50,NCI-H2347,4.92 µM
same,IC50,PFSK-1,> 5 µM
same,IC50,RD,> 5 µM
same,IC50,RERF-LC-MS,> 5 µM
same,IC50,RO82-W-1,4.34 µM
same,IC50,RPMI-2650,> 5 µM
same,IC50,S-117,> 5 µM
same,IC50,SK-LU-1,> 5000 nM
same,IC50,SK-MEL-24,> 5 µM
same,IC50,SNU-387,3810 nM
same,IC50,SW13,> 5 µM
same,IC50,SW1417,> 5 µM
same,IC50,SW626,> 5 µM
same,IC50,T98G,2390 nM
same,IC50,A673,> 5 µM
same,IC50,AGS,2560 nM
same,IC50,ASPC1,> 5 µM
same,IC50,BFTC-905,1080 nM
same,IC50,BFTC-909,4.65 µM
same,IC50,CAL-120,3890 nM
same,IC50,CAL-85-1,> 5000 nM
same,IC50,CAPAN-1,> 5 µM
CO[C@@H]1[C@H](N(C)C(=O)c2ccccc2)C[C@H]2O[C@]1(C)n1c3ccccc3c3c4c(c5c6ccccc6n2c5c31)C(=O)NC4 [MIDOSTAURIN],IC50,DBTRG-05MG,> 512 nM
same,IC50,EFM-19,212 nM
same,IC50,HGC-27,> 512 nM
same,IC50,HMV-2 cell line,> 512 nM
same,IC50,HSC-3,> 512 nM
same,IC50,HT-1080,160 nM
same,IC50,NCI-H1437,> 512 nM
same,IC50,NCI-H1755,62.7 nM
same,IC50,SNU-387,139 nM
same,IC50,CAL-120,211 nM
same,IC50,CAL-85-1,> 512 nM
